Read-outs that look alike come from different tables or passages of the source.
What was measured:
CKα1 = target: T1, CKα1 (Homo sapiens, UniProt P35790); test: Choline kinase assay ([methyl-14C]choline into PCho, purified enzyme); format: biochemical; conditions: for IC50: concentration required to inhibit CKα1 enzyme by 50%; for % Inhibition at 10 µM: purified CKα1, inhibitor 10 µM; for % Inhibition at 10 µM / % Inhibition at 30 µM: end-point assay; for % Inhibition at 30 µM: purified CKα1, inhibitor 30 µM
T1 construct: an N-terminally His-tagged truncated form of CKα1 (Δ75–457) was cloned into a pET-28a vector; His tag (N); made in house; host or cells: E. coli BL21 (DE3) Star
T1 sequence (P35790 75-457): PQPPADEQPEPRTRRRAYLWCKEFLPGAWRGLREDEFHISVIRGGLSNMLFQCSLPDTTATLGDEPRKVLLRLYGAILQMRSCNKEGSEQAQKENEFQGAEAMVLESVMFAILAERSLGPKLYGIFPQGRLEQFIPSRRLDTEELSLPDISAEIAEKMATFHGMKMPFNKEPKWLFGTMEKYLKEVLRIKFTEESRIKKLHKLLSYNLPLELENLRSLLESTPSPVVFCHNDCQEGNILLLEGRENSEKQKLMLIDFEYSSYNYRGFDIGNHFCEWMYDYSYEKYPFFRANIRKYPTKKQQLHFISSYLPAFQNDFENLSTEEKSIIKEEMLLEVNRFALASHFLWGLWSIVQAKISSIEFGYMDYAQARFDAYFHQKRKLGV
Description: The protein was produced and purified as previously described. Briefly, an N-terminally His-tagged truncated form of CKα1 (Δ75–457) was cloned into a pET-28a vector and expressed at 37 °C in E. coli BL21 (DE3) Star cells using 1 mM isopropyl β-D-1-thiogalactopyranoside (IPTG). After centrifugation, the cellular pellet was resuspended in 50 mM Tris-HCl pH 7.5, 500 mM NaCl, 0.2 mM phenylmethylsulphonyl fluoride (PMSF), DNase, and 0.5 mM β-mercaptoethanol, sonicated and subjected to a two-step purification procedure to isolate the target enzyme. […] Protein elution was completed using buffer A + 400 mM imidazole. A second size-exclusion chromatography step was then carried out to achieve complete purity. To this end, we used a HiPrep 26/60 Sephacryl 100 HR column (GE Healthcare, Little Chalfont, Buckinghamshire, UK) and a 20 mM Tris/HCl pH 7.5, 150 mM NaCl running buffer.
To study the effect of the compounds on CKα, an in vitro enzymatic assay was performed using the purified enzyme as previously reported in [19, 28, 29]. Briefly, the incorporation of ^14C from [methyl-^14C]choline into PCho in either the absence (control) or presence of different inhibitors at varying concentrations was used to determine the CK activity. The reaction mixture included 20 ng of purified CKα1, 10 mM ATP, 10 mM MgCl2, 100 mM Tris-HCl pH 8.5, and increasing concentrations of compounds. The mixture was preincubated at 37 °C for 5 min. Then, [methyl-^14C]choline chloride (1 mM, 4500 dpm/nmol) was added and the reaction was left to proceed for 10 min at 37 °C. The assay was stopped by immersing the reaction tubes in boiling water. PCho was separated by Thin Layer Chromatography using methanol/0.6% NaCl/28% NH4OH in water (50:50:5, v/v/v) as solvent. The radioactivity associated into PCho was determined in a Beckman 6000-TA (Madrid, Spain) liquid scintillation counter. The 50% inhibitory concentrations (IC50 values) were determined from the % enzyme activity at different concentrations of synthetic inhibitors relative to the control by using a sigmoidal dose–response curve (ED50plus v1.0 software).

A549 = test: Antiproliferative activity, resazurin assay, 72 h; format: cell-based, human
Description: (§1) Human cervix carcinoma (HeLa), Non-small lung adenocarcinoma (A549), Colon adenocarcinoma (HT29), and human triple negative breast cancer (MDA-MB-231) were cultured in Dulbecco’s modified Eagle’s media (DMEM). B-acute lymphoblastic leukemia (RS4;11 and SEM), T-acute lymphoblastic leukemia (Jurkat), and human promyelocytic cells (HL-60), were cultured in RPMI-1640 medium. Both media were purchased from Gibco, Life Technologies (Milan, Italy) and supplemented with 10% Fetal Bovine Serum (FBS, Invitrogen, Milan, Italy,). Every six months, each cell line was checked for the presence of mycoplasma by RT-PCR.
(§2) Stock solutions (10 mM) of the different compounds were made in DMSO. Cancer cells were seeded in tissue-treated, flat bottom, 384-well plates (Corning) according to their optimal density, (A549 1000 cells/wells; MDA-MB-231, HeLa and HT-29 2000 cells/well and finally Jurkat, HL-60 SEM and RS4;11 20.000 cells/well) in 27 µL of complete medium per well.
(§3) The day after cell seeding and immediately before cell treatment, 10 mM stock solutions of the compounds were pre-diluted to a […] concentration in 250 µL of Hank’s in a 96-well plate (Corning). Subsequent 1:5 dilutions were carried out using a microlab STAR 96-CORE liquid handling system (Hamilton), a robotized liquid handling tool that was employed for all steps, from cell seeding to drug dilution and cell treatment to ensure high reproducibility while reducing time for large screening execution. This pre-dilution step was necessary to avoid DMSO-related cytotoxicity and compound precipitation in the cell culture medium. In every case, DMSO concentration never exceeded 0.1%.
(§4) Positive (Bortezomib 1 µM) and negative (0.1% DMSO) controls were included in all the screened plates to allow for monitoring the Z’ factor throughout the entire screening. Cells were treated with 3 µL of the previously made dilutions; thus, generating a 6-point 5-fold dose–response curve starting from 10 µM. Within a plate, each drug concentration was tested in duplicate in two independent experiments for each compound.
(§5) Treated cells were then placed inside the CO2 incubator for 72 h at 37 °C. Cell viability was assessed by resazurin assay, in which 3 µL of resazurin per well were added using the previously described automated platform. Plates were placed in the incubator at 37 °C for 2 h, and then the fluorescence of each plate was read using a Spark 10 M multimode microplate reader (Tecan Group Ltd., Mannedorf, Switzerland) with 535 nm excitation wavelength and 600 nm emission wavelength.

HL-60 = test: Antiproliferative activity, resazurin assay, 72 h; format: cell-based, human
Description: as §1, §2, §3, §4, §5

HT29 = test: Antiproliferative activity, resazurin assay, 72 h; format: cell-based, human
Description: as §1, §2, §3, §4, §5

HeLa = test: Antiproliferative activity, resazurin assay, 72 h; format: cell-based, human
Description: as §1, §2, §3, §4, §5

Jurkat = test: Antiproliferative activity, resazurin assay, 72 h; format: cell-based, human
Description: as §1, §2, §3, §4, §5

MDA-MB-231 = test: Antiproliferative activity, resazurin assay, 72 h; format: cell-based, human
Description: as §1, §2, §3, §4, §5

RS 4;11 = test: Antiproliferative activity, resazurin assay, 72 h; format: cell-based, human
Description: as §1, §2, §3, §4, §5

SEM cells = test: Antiproliferative activity, resazurin assay, 72 h; format: cell-based, human
Description: as §1, §2, §3, §4, §5

Compound | IC50 (CKα1) [nM] | % Inhibition at 10 µM (CKα1) [%] | % Inhibition at 30 µM (CKα1) [%] | GI50 (A549) [nM] | GI50 (HL-60) [nM] | GI50 (HT29) [nM] | GI50 (HeLa) [nM] | GI50 (Jurkat) [nM] | GI50 (MDA-MB-231) [nM] | GI50 (RS 4;11) [nM] | GI50 (SEM cells) [nM] | other results
[Br-].[Br-].c1cc2c(N3CCCC3)nc[n+](Cc3ccc(CCc4ccc(C[n+]5cnc(N6CCCC6)c6ccsc65)cc4)cc3)c2s1 [Fg-15] | ≥ 5000 | 71.11 | 81.29 | 220 ± 30 | 130 ± 10 | 2010 ± 30 | 1000 ± 100 | > 10000 | 260 ± 20 | 3710 ± 40 | > 10000 | 
[Br-].[Br-].c1cc2c(s1)c(N1CCCCC1)nc[n+]2Cc1ccc(CCCCc2ccc(C[n+]3cnc(N4CCCCC4)c4sccc43)cc2)cc1 [Fa-33] | 1670 ± 80 | 98.90 | 97.80 | 160 ± 10 | 140 ± 10 | 1070 ± 100 | 280 ± 20 | 1460 ± 100 | 410 ± 20 | 760 ± 100 | 1370 ± 70 | 
[Br-].[Br-].c1cc2c(s1)c(N1CCCC1)cc[n+]2Cc1ccc(CCc2ccc(C[n+]3ccc(N4CCCC4)c4sccc43)cc2)cc1 [Fg-11] | 2330 ± 200 | 93.07 | 94.25 | 390 ± 40 | 470 ± 30 | 3650 ± 500 | 2190 ± 300 | 8530 ± 1100 | 680 ± 70 | 5720 ± 500 | > 10000 | 
c1cc2c(s1)c(N1CCCCCC1)nc[n+]2Cc1ccc(CCCCc2ccc(C[n+]3cnc(N4CCCCCC4)c4sccc43)cc2)cc1 [Fa-29] | 1080 ± 70 |  |  |  |  |  |  |  |  |  |  | inhibition at 5 µM (CKα1; purified CKα1, inhibitor 5 µM, read-out: percentage inhibition at 5 µM): 85%; GI50 (A549; Homo sapiens, A549): 140 ± 20 nM; GI50 (HL-60; Homo sapiens, HL-60): 550 ± 20 nM; GI50 (HT29; Homo sapiens, HT-29): 1090 ± 200 nM; GI50 (HeLa; Homo sapiens, HeLa): 840 ± 40 nM; GI50 (Jurkat; Homo sapiens, Jurkat): 5230 ± 800 nM; GI50 (MDA-MB-231; Homo sapiens, MDA-MB-231): 500 ± 20 nM; GI50 (RS 4;11; Homo sapiens, RS4-11): 1600 ± 100 nM; GI50 (SEM cells; Homo sapiens): 1770 ± 200 nM
[Br-].[Br-].c1cc2c(s1)c(N1CCCC1)cc[n+]2Cc1ccc(-c2ccc(C[n+]3ccc(N4CCCC4)c4sccc43)cc2)cc1 [Fg-9] | ≥ 5000 | 75.81 | 94.95 | 250 ± 20 | 9120 ± 1100 | > 10000 | > 10000 | > 10000 | 2020 ± 200 | > 10000 | > 10000 | 
[Br-].[Br-].c1cc2c(s1)c(N1CCCC1)cc[n+]2Cc1ccc(CCCCc2ccc(C[n+]3ccc(N4CCCC4)c4sccc43)cc2)cc1 [Ff-1] | 1540 ± 170 | 82.15 | 90.83 | 970 ± 20 | 790 ± 50 | 3320 ± 30 | 1900 ± 10 | 4130 ± 400 | 1230 ± 10 | 7900 ± 1300 | 3070 ± 300 | 
[Br-].[Br-].c1cc2c(s1)c(N1CCCC1)nc[n+]2Cc1ccc(OCCOc2ccc(C[n+]3cnc(N4CCCC4)c4sccc43)cc2)cc1 [Ff-8] |  | 79.23 | 92.88 | 290 ± 300 | 550 ± 20 | 1890 ± 200 | 910 ± 90 | > 10000 | 320 ± 50 | 3470 ± 300 | > 10000 | 
C/[N+](c1ccc(Cl)cc1)=c1\ccn(Cc2ccc(-c3ccc(Cn4cc/c(=[N+](/C)c5ccc(Cl)cc5)c5ccccc54)cc3)cc2)c2ccccc12 [RSM-932A, reference compound] |  |  |  |  |  |  |  |  |  |  |  | GI50 (A549; Homo sapiens, A549): 450 ± 90 nM; GI50 (HL-60; Homo sapiens, HL-60): 930 ± 100 nM; GI50 (HT29; Homo sapiens, HT-29): 400 ± 200 nM; GI50 (HeLa; Homo sapiens, HeLa): 830 ± 100 nM; GI50 (Jurkat; Homo sapiens, Jurkat): 410 ± 100 nM; GI50 (MDA-MB-231; Homo sapiens, MDA-MB-231): 170 ± 50 nM; GI50 (RS 4;11; Homo sapiens, RS4-11): 170 ± 40 nM
[Br-].[Br-].c1cc2c(s1)c(N1CCCCCC1)nc[n+]2Cc1ccc(OCCOc2ccc(C[n+]3cnc(N4CCCCCC4)c4sccc43)cc2)cc1 [Ff-34] | 700 ± 30 | 94.31 | 99.02 | 290 ± 30 | 270 ± 10 | 1630 ± 100 | 930 ± 10 | 6100 ± 1100 | 910 ± 80 | 1800 ± 100 | 2500 ± 100 | IC50 (CKα1; listed as Fa-34): 704 nM
[Br-].[Br-].c1cc2c(s1)c(N1CCCCCC1)cc[n+]2Cc1ccc(-c2ccc(C[n+]3ccc(N4CCCCCC4)c4sccc43)cc2)cc1 [Fg-10] | ≥ 10000 | 80.76 | 96.98 | 310 ± 10 | 440 ± 50 | 1760 ± 200 | 1590 ± 100 | 6330 ± 600 | 1460 ± 200 | 2770 ± 900 | 3510 ± 800 | 
[Br-].[Br-].c1cc2c(N3CCCCC3)nc[n+](Cc3ccc(-c4ccc(C[n+]5cnc(N6CCCCC6)c6ccsc65)cc4)cc3)c2s1 [Fg-30] | ≥ 5000 | 75.46 | 85.71 | 600 ± 20 |  | 8320 ± 900 | 2890 ± 300 | > 10000 | 800 ± 20 | > 10000 | > 10000 | 
[Br-].[Br-].c1cc2c(s1)c(N1CCCCC1)nc[n+]2Cc1ccc(OCCOc2ccc(C[n+]3cnc(N4CCCCC4)c4sccc43)cc2)cc1 [Fa-28] | 3250 ± 540 | 87.69 | 92.19 | 290 ± 20 | 350 ± 10 | > 10000 | 590 ± 20 | > 10000 | 190 ± 10 | 2320 ± 30 | 2410 ± 40 | 
[Br-].[Br-].c1cc2c(N3CCCC3)nc[n+](Cc3ccc(CCCCc4ccc(C[n+]5cnc(N6CCCC6)c6ccsc65)cc4)cc3)c2s1 [Ff-3] | ≥ 5000 | 74.17 | 80.09 | 210 ± 20 | 210 ± 30 | 1330 ± 10 | 630 ± 20 | 7540 ± 1500 | 360 ± 30 | 2050 ± 100 | 3700 ± 400 | 
CN(C)c1cc[n+](Cc2ccc(CCCCc3ccc(C[n+]4ccc(N(C)C)cc4)cc3)cc2)cc1 [MN-48b, reference compound] | 780 ± 30 |  |  | 540 ± 200 | 320 ± 30 | 1900 ± 400 | 1900 ± 100 | 350 ± 100 | 310 ± 120 | 1000 ± 300 |  | 
CN(c1ccc(Cl)cc1)c1nc[n+](Cc2ccc(-c3ccc(C[n+]4cnc(N(C)c5ccc(Cl)cc5)c5ccsc54)cc3)cc2)c2sccc12 [Fp-8] |  |  |  | 160 ± 10 | 900 ± 80 | 3930 ± 500 | 1770 ± 100 | > 10000 | 830 ± 40 | 3380 ± 50 | > 10000 | 

Reference: paper PMC9032693, “Biological Evaluation of New Thienopyridinium and Thienopyrimidinium Derivatives as Human Choline Kinase Inhibitors” (Pharmaceutics, 2022)
